Among the test systems are CAKI-1 renal; SK-OV-3 ovarian; OVCAR-5 ovarian; COLO 205 colon; 786-0 renal; SR leukemia; MALME-3M melanoma; CCRF-CEM leukemia.
Common to all, as to experiment: inhibition of tumour cell growth, NCI panel, 48 h

Several values for one entry are separate records, joined by “and”; a condition that tells them apart may be missing. Identical values can stand only once.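 Assay format: 96-well plates, 48-hour exposure. GI50 = concentration required for 50% inhibition of growth. Definition used: TGI = concentration required for complete inhibition of growth.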 Bounds are passed on as bounds.

GI50 and TGI data for nine compounds are collected here from PubChem BioAssay (NCI).

For `c1ccc2cc(-c3n(Cc4ccc5ccccc5n4)c4ccccc4[n+]3Cc3ccc4ccccc4n3)ccc2c1`, the GI50 in the assay with CAKI-1 renal was 0.655 µM; in the assay on SK-OV-3 ovarian it was 0.268 µM; in the assay with OVCAR-5 ovarian, 0.368 µM; in the assay on COLO 205 colon, 0.171 µM; in the assay with 786-0 renal, 0.392 µM; with SR leukemia, 0.362 µM. In addition, the GI50 was 0.379 µM with MALME-3M melanoma and 0.333 µM with CCRF-CEM leukemia. The TGI with CAKI-1 renal is 2 µM; in the assay with SK-OV-3 ovarian it was 0.912 µM; in the assay on OVCAR-5 ovarian it was 1.47 µM; in the assay with COLO 205 colon, 0.346 µM; in the assay with 786-0 renal, 1.72 µM; in the assay with SR leukemia it was 1.42 µM. For the same compound, the results for the TGI in the assay with MALME-3M melanoma and in the assay on CCRF-CEM leukemia were 1.69 µM and 1.67 µM, respectively.

Regarding `Oc1c(I)cc(I)c2cccnc12`, the GI50 is 3.17 µM in the assay with CAKI-1 renal; 5.17 µM with SK-OV-3 ovarian; 3.57 µM in the assay with OVCAR-5 ovarian; 3.6 µM with COLO 205 colon; 7.14 µM in the assay on 786-0 renal; 5.75 µM with SR leukemia. Also, the GI50 in the assay on MALME-3M melanoma was 0.573 µM; in the assay with CCRF-CEM leukemia, 6.95 µM. The TGI with CAKI-1 renal was 14.2 µM; in the assay on SK-OV-3 ovarian, 29.2 µM; in the assay with OVCAR-5 ovarian, 24.6 µM; with COLO 205 colon, 17 µM; in the assay with 786-0 renal, 25.4 µM; in the assay on SR leukemia it was more than 100 µM. Moreover, the TGI is 27.6 µM in the assay with MALME-3M melanoma and more than 100 µM with CCRF-CEM leukemia.

As to `COC(=O)CCCCC(=O)c1c(C)[nH]c(/C=C2\N=C(c3ccc[nH]3)C=C2OC)c1C`, the GI50 in the assay with CAKI-1 renal is 1.03 µM; in the assay on SK-OV-3 ovarian, 2.25 µM; in the assay with OVCAR-5 ovarian, 0.87 µM; in the assay on COLO 205 colon, 1.64 µM; in the assay with 786-0 renal, 0.437 µM; with SR leukemia, 0.029 µM. The GI50 was 0.746 µM in the assay on MALME-3M melanoma and 0.159 µM in the assay on CCRF-CEM leukemia. Moreover, the TGI with CAKI-1 renal was found to be 2.49 µM; in the assay with SK-OV-3 ovarian, 4.4 µM; in the assay with OVCAR-5 ovarian, 2.38 µM; with COLO 205 colon it was 3.29 µM; in the assay on 786-0 renal, 1.61 µM; with SR leukemia, 0.313 µM. In addition, the TGI in the assay with MALME-3M melanoma stood at 2.16 µM; in the assay on CCRF-CEM leukemia, 2.32 µM.

For the compound `O=C(O)Cc1cccnc1`, the TGI with CAKI-1 renal, in the assay with SK-OV-3 ovarian, in the assay with OVCAR-5 ovarian, in the assay with COLO 205 colon, in the assay with 786-0 renal and in the assay with SR leukemia was more than 100 µM throughout. Further, the TGI in the assay on MALME-3M melanoma and with CCRF-CEM leukemia was more than 100 µM in each case.

With `COC(=O)[C@H]1CCCN1C(=O)[C@H]1CCCN1C(=O)[C@@H](Cc1c[nH]c2ccccc12)NC(=S)Nc1cc(C(F)(F)F)cc(C(F)(F)F)c1`, the GI50 is 2.1 µM with CAKI-1 renal; 3.01 µM with SK-OV-3 ovarian; 1.78 µM in the assay with OVCAR-5 ovarian; 1.83 µM in the assay with COLO 205 colon; 1.83 µM with 786-0 renal; 2.53 µM in the assay with SR leukemia. For the same compound, the GI50 with MALME-3M melanoma is 1.75 µM; in the assay on CCRF-CEM leukemia, 3.14 µM. For the same compound, the TGI with CAKI-1 renal was found to be 5.63 µM; in the assay on SK-OV-3 ovarian, 10.1 µM; in the assay on OVCAR-5 ovarian, 3.54 µM; in the assay on COLO 205 colon, 3.49 µM; in the assay on 786-0 renal, 3.29 µM; in the assay on SR leukemia, 5.65 µM. For the same compound, the TGI in the assay with MALME-3M melanoma is 3.31 µM; in the assay on CCRF-CEM leukemia, more than 100 µM.

As for `O=C(Nc1cccc(-n2cc(-c3ccncc3)c(-c3cc(O)cc(Cl)c3)n2)c1)c1cc(C(F)(F)F)cc(C(F)(F)F)c1`, the GI50 is 3.67 µM in the assay on CAKI-1 renal; 10.8 µM in the assay with SK-OV-3 ovarian; 8.23 µM in the assay with OVCAR-5 ovarian; 2.32 µM in the assay on COLO 205 colon; 3.12 µM with 786-0 renal; 1.61 µM in the assay on SR leukemia. Besides, the GI50 in the assay with MALME-3M melanoma is 3.69 µM; in the assay with CCRF-CEM leukemia, 2.68 µM. For the same compound, the TGI with CAKI-1 renal was more than 100 µM; with SK-OV-3 ovarian, more than 100 µM; with OVCAR-5 ovarian it was 38.4 µM; in the assay with COLO 205 colon it was 5.74 µM; with 786-0 renal, 21.1 µM; in the assay on SR leukemia, 5.01 µM. Also, the TGI with MALME-3M melanoma is 94.4 µM; with CCRF-CEM leukemia it was more than 100 µM.

As for `O=C(/C=C/c1cccc(O)c1)c1cccc(-n2cc(-c3ccccc3)[nH]c2=O)c1`, the GI50 is 4.95 µM with CAKI-1 renal; 12.3 µM in the assay with SK-OV-3 ovarian; 3.86 µM in the assay with OVCAR-5 ovarian; 1.96 µM in the assay with COLO 205 colon; 2.36 µM with 786-0 renal; 1.51 µM in the assay with SR leukemia. Besides, the figures for the GI50 with MALME-3M melanoma and in the assay on CCRF-CEM leukemia were 3.53 µM and 3.1 µM, respectively. Besides, the TGI in the assay on CAKI-1 renal is 10.5 µM; in the assay with SK-OV-3 ovarian, 25 µM; in the assay with OVCAR-5 ovarian it was 11.9 µM; in the assay with COLO 205 colon, 3.85 µM; in the assay on SR leukemia it was more than 20.1 µM; with MALME-3M melanoma it was 10.9 µM. For the same compound, the TGI in the assay on CCRF-CEM leukemia is more than 41.1 µM.

As to `O=C(CCCCCCN1CC(=O)N2[C@@H](c3ccc(Cl)c(Cl)c3)c3[nH]c4ccccc4c3C[C@H]2C1=O)NO`, the GI50 in the assay with CAKI-1 renal was 3.43 µM; in the assay with SK-OV-3 ovarian, 4.58 µM; in the assay on OVCAR-5 ovarian, 3.86 µM; in the assay with COLO 205 colon, 3.5 µM; in the assay on 786-0 renal it was 4.63 µM; in the assay on SR leukemia it was 0.689 µM. Besides, the GI50 in the assay on MALME-3M melanoma is 2.7 µM; in the assay with CCRF-CEM leukemia, 1.07 µM. In addition, the TGI was found to be 8.71 µM in the assay on CAKI-1 renal; 9.81 µM with SK-OV-3 ovarian; 13.4 µM in the assay on OVCAR-5 ovarian; 10.1 µM in the assay with COLO 205 colon; 9.39 µM in the assay on 786-0 renal; 3.1 µM in the assay with SR leukemia. The results for the TGI with MALME-3M melanoma and in the assay with CCRF-CEM leukemia were 14.8 µM and more than 33.3 µM, respectively.

Take `Cc1cc(N=Nc2ccccc2C)ccc1N`: the GI50 with CAKI-1 renal was 7.38 µM; in the assay on SK-OV-3 ovarian it was 22.2 µM; with OVCAR-5 ovarian it was 15 µM; in the assay with 786-0 renal, 2.96 µM; with SR leukemia, 8.49 µM; with MALME-3M melanoma, 16.2 µM. In addition, in the assay with CCRF-CEM leukemia, the GI50 is 0.435 µM. Also, the TGI in the assay with CAKI-1 renal was 46.5 µM and 28.7 µM; with SK-OV-3 ovarian, 67 µM and 66.9 µM; with OVCAR-5 ovarian it was 41.3 µM and 37.6 µM; in the assay on COLO 205 colon, 33.6 µM and 32.4 µM; in the assay with 786-0 renal it was 27 µM and 15.8 µM; with SR leukemia, 52.1 µM and 61.6 µM. Besides, the TGI in the assay on MALME-3M melanoma is 38.6 µM and 39 µM; with CCRF-CEM leukemia it was more than 100 µM.
